ChEMBL document CHEMBL4813964, “2,5-Disubstituted furan derivatives containing 1,3,4-thiadiazole moiety as potent α-glucosidase and E. coli β-glucuronidase inhibitors” (Eur J Med Chem, 2021)

Key:
Saccharomyces cerevisiae [1] = test: Inhibition of Saccharomyces cerevisiae alpha-glucosidase assessed as reduction in PNP formation at 10 uM using alpha-PNPG as substrate incubated for 30 mins relative to control
[2] = Inhibition of Saccharomyces cerevisiae alpha-glucosidase assessed as reduction in PNP formation using alpha-PNPG as substrate incubated for 30 mins
Escherichia coli [3] = test: Inhibition of recombinant Escherichia coli […] expressed in Escherichia coli BL21(DE3) assessed as reduction in PNP formation at 10 uM using beta-PNPG as substrate incubated for 30 mins relative to control
[4] = Inhibition of Escherichia coli […] expressed in Escherichia coli BL21 (DE3) assessed as reduction in PNP formation using beta-PNPG as substrate incubated for 30 mins
[5] = Uncompetitive inhibition of recombinant Escherichia coli […] expressed in Escherichia coli […] using beta-PNPG as substrate incubated for 30 mins by Lineweaver-Burk plot analysis
L02 = test: Cytotoxicity against human L02 cells assessed as reduction in cell viability incubated for 48 hrs by CCK8 assay; format: cell-based; conditions: L02, 48 h
[6] = Mixed inhibition of recombinant Escherichia coli […] expressed in Escherichia coli BL21(DE3) using beta-PNPG as substrate incubated for 30 mins by Lineweaver-Burk plot analysis
[7] = Competitive inhibition of Saccharomyces cerevisiae alpha-glucosidase using alpha-PNPG as substrate incubated for 30 mins by Lineweaver-Burk plot analysis
Saccharomyces cerevisiae [8] = test: Potency index, ratio of ACAR IC50 to test compound IC50 for inhibition of Saccharomyces cerevisiae alpha-glucosidase assessed as reduction in PNP formation using alpha-PNPG as substrate incubated for 30 mins
Escherichia coli [9] = test: Potency index, ratio of DSL IC50 to test compound IC50 for inhibition of Escherichia coli […] expressed in Escherichia coli BL21 (DE3) assessed as reduction in PNP formation using beta-PNPG as substrate incubated for 30 mins

| SMILES | inhibition (Saccharomyces cerevisiae [1]) | IC50 [2] | inhibition (Escherichia coli [3]) | IC50 [4] | Ki [7] | Ratio IC50 (Saccharomyces cerevisiae [8]) | Ratio IC50 (Escherichia coli [9]) | Ki [5] | IC50 (L02) | Ki [6] |
| --- | --- | --- | --- | --- | --- | --- | --- | --- | --- | --- |
| Cc1ccc(-c2ccc(C(=O)Sc3nnc(C)s3)o2)cc1 | 44.4% |  | 85.7% | 0.508 µM |  |  |  |  |  |  |
| O=C(Sc1nncs1)c1ccc(-c2cccc([N+](=O)[O-])c2)o1 | 79.6% | 1.57 µM | 74.6% | 0.212 µM |  |  |  |  |  |  |
| O=C(Sc1nncs1)c1ccc(-c2cccc(F)c2)o1 | 82.6% | 0.646 µM | 95.9% | 0.425 µM |  |  |  |  |  |  |
| O=C(Sc1nncs1)c1ccc(-c2ccccc2Cl)o1 | 82.1% | 1.35 µM | 88.1% | 5.37 µM |  |  |  |  |  |  |
| Cc1ccc(-c2ccc(C(=O)Sc3nncs3)o2)cc1 | 78.2% | 0.286 µM | 90.1% | 0.312 µM |  |  |  |  |  |  |
| O=C(Sc1nncs1)c1ccc(-c2ccccc2)o1 | 79.5% | 0.613 µM | 105% | 1.13 µM |  |  |  |  |  |  |
| Cc1nnc(SC(=O)c2ccc(-c3cccc([N+](=O)[O-])c3)o2)s1 | 20.1% |  | 92.5% | 1.21 µM |  |  |  |  |  |  |
| Cc1nnc(SC(=O)c2ccc(-c3ccccc3Cl)o2)s1 | 94.1% | 0.774 µM | 100% | 0.23 µM |  |  |  |  |  |  |
| O=C(Sc1nncs1)c1ccc(-c2ccccc2[N+](=O)[O-])o1 | 95.7% | 0.223 µM | 90.5% | 0.341 µM |  |  |  |  | > 100 µM |  |
| O=C(O)[C@@H](O)[C@H]1OC(=O)[C@H](O)[C@H]1O [D-SACCHARIC ACID 1,4-LACTONE] |  |  | 11.6% | 67.3 µM |  |  |  |  |  | 30.9 µM |
| O=C(Sc1nncs1)c1ccc(-c2ccccc2F)o1 | 82.5% | 1.67 µM | 87.8% | 1.14 µM |  |  |  |  |  |  |
| C[C@H]1O[C@H](O[C@H]2[C@H](O)[C@@H](O)[C@@H](O[C@H]3[C@H](O)[C@@H](O)C(O)O[C@@H]3CO)O[C@@H]2CO)[C@H](O)[C@@H](O)[C@@H]1N[C@H]1C=C(CO)[C@@H](O)[C@H](O)[C@H]1O (stereo not given in full) [ACARBOSE] | 11.1% | 517 µM |  |  | 378 µM |  |  |  |  |  |
| Cc1nnc(SC(=O)c2ccc(-c3ccc(F)cc3)o2)s1 | 58.7% | 1.85 µM | 78.8% | 0.796 µM |  |  |  |  |  |  |
| O=C(Sc1nncs1)c1ccc(-c2ccc(Br)cc2)o1 | 66.7% | 0.526 µM | 76.4% | 0.379 µM |  |  |  |  |  |  |
| Cc1nnc(SC(=O)c2ccc(-c3cccc(F)c3)o2)s1 | 59.1% | 2.95 µM | 91.7% | 0.082 µM |  |  | 820 | 0.06 µM | 86.2 µM |  |
| O=C(Sc1nncs1)c1ccc(-c2ccc(F)cc2F)o1 | 71% | 1.14 µM | 76.4% | 1.27 µM |  |  |  |  |  |  |
| COc1ccc(-c2ccc(C(=O)Sc3nncs3)o2)cc1 | 74.4% | 0.239 µM | 93% | 0.533 µM |  |  |  |  |  |  |
| Cc1nnc(SC(=O)c2ccc(-c3ccc(F)cc3F)o2)s1 | 65.8% | 1.94 µM | 86.7% | 0.357 µM |  |  |  |  |  |  |
| O=C(Sc1nncs1)c1ccc(-c2ccc([N+](=O)[O-])cc2)o1 | 75.1% | 1.81 µM |  |  |  |  |  |  |  |  |

More lines, in order of falling IC50 [4], values ahead:

| inhibition (Saccharomyces cerevisiae [1]) | IC50 [2] | inhibition (Escherichia coli [3]) | IC50 [4] | Ki [7] | Ratio IC50 (Saccharomyces cerevisiae [8]) | Ratio IC50 (Escherichia coli [9]) | SMILES | Ki [5] | IC50 (L02) | Ki [6] |
| --- | --- | --- | --- | --- | --- | --- | --- | --- | --- | --- |
| 68.9% | 0.186 µM | 92% | 2.08 µM | 0.05 µM | 2800 |  | O=C(Sc1nncs1)c1ccc(-c2ccc(Cl)cc2)o1 |  | 83.3 µM |  |
| 73% | 0.823 µM | 95.9% | 0.923 µM |  |  |  | Cc1nnc(SC(=O)c2ccc(-c3ccccc3)o2)s1 |  |  |  |
| 81.6% | 0.903 µM | 92.9% | 0.849 µM |  |  |  | O=C(Sc1nncs1)c1ccc(-c2c(F)cccc2F)o1 |  |  |  |
| 50.8% | 11 µM | 82.7% | 0.755 µM |  |  |  | Cc1nnc(SC(=O)c2ccc(-c3ccc(Br)cc3)o2)s1 |  |  |  |
| 48.8% |  | 77.8% | 0.695 µM |  |  |  | Cc1nnc(SC(=O)c2ccc(-c3ccc(Cl)cc3)o2)s1 |  |  |  |
| 81.6% | 0.658 µM | 98.5% | 0.564 µM |  |  |  | Cc1nnc(SC(=O)c2ccc(-c3ccccc3[N+](=O)[O-])o2)s1 |  |  |  |
| 82.5% | 0.728 µM | 99.6% | 0.551 µM |  |  |  | Cc1nnc(SC(=O)c2ccc(-c3cccc(Cl)c3)o2)s1 |  |  |  |
| 76.5% | 0.652 µM | 94.4% | 0.526 µM |  |  |  | O=C(Sc1nncs1)c1ccc(-c2ccc(F)cc2)o1 |  |  |  |
| 90.8% | 0.863 µM | 96.1% | 0.415 µM |  |  |  | Cc1nnc(SC(=O)c2ccc(-c3c(F)cccc3F)o2)s1 |  |  |  |
| 69.9% | 2.74 µM | 96.6% | 0.307 µM |  |  |  | Cc1nnc(SC(=O)c2ccc(-c3ccccc3F)o2)s1 |  |  |  |
| 33.1% |  | 87.5% | 0.303 µM |  |  |  | COc1ccc(-c2ccc(C(=O)Sc3nnc(C)s3)o2)cc1 |  |  |  |
| 62.9% | 2.5 µM | 92.9% | 0.247 µM |  |  |  | Cc1nnc(SC(=O)c2ccc(-c3ccc([N+](=O)[O-])cc3)o2)s1 |  |  |  |
| 77.1% | 0.68 µM | 83.8% | 0.148 µM |  |  |  | O=C(Sc1nncs1)c1ccc(-c2cccc(Cl)c2)o1 |  |  |  |
|  |  | 99.8% | 0.083 µM |  |  |  | Clc1ccc2c(c1)C(N1CCNCC1)=Nc1ccccc1O2 [AMOXAPINE] | 0.05 µM |  |  |
